Literature values in patent publication US20070224228A1, “Soap Bars Having Ultraviolet Radiation Protection” (priority 2004, published 2007).

Settings: partition coefficient; solvents octanol and water; values printed as approximate (˜)

| Log P | Compound |
| --- | --- |
| ~5.7 | Cyclomethicone |
| ~6.9 | CCCCC(CC)COC(=O)C(C#N)=C(c1ccccc1)c1ccccc1 (centres unmarked) [Octocrylene] |
